Test results as given in patent US12545668B2, “Cyclic amine derivative as agent for promoting advillin function, and novel cyclic amine derivative and pharmaceutical use thereof” (Toray Industries, Inc., priority 2018, dated 2026).

Assays:
[1] = Specific binding of 3H-labeled compound to membrane fractions prepared from the other rat tissues; settings: 3H-labeled compound of Example 7, 37° C., 1 hour; relative to dorsal root ganglion
Protocol: (§1) A binding property of a ^3H-labeled cyclic amine derivative (I) to each of membrane fractions prepared from various tissues of a rat was evaluated, and thus, a tissue containing a molecular target of the cyclic amine derivative (I) was clarified.
(§2) As the cyclic amine derivative (I), the compound of Example 7 was used.
(§3) Male SD rats (manufactured by Charles River Laboratories Japan, Inc.) of 7 weeks old were used. Rats were anesthetized with isoflurane, and euthanized by exsanguination from the abdominal aorta using a syringe having an inner wall treated with a heparin sodium injection (manufactured by AY Pharmaceuticals Co., Ltd.). […]
(§4) A homogenate sample of each tissue thus collected was prepared, using a homogenizer, by adding a homogenize buffer (sucrose (1 M), Tris-HCl (0.5 M), and 1× protease inhibitor cocktail (manufactured by Sigma Aldrich), pH 7.6) to the collected tissue. […] The resultant supernatant was ultracentrifuged at 100,000×g at 4° C. for 60 minutes, and the thus obtained precipitate was suspended in Krebs-Ringer bicarbonate buffer (manufactured by Sigma Aldrich) to quantitatively determine the amount of protein using a BCA protein assay kit (manufactured by Thermo Fisher Scientific K.K.). […]

[2] = Specific binding of 3H-labeled compound to membrane fraction prepared from rat sciatic nerve; settings: 3H-labeled compound of Example 7, 37° C., 1 hour; relative to dorsal root ganglion
Protocol: as §1, §2, §3, §4

[3] = Specific binding of 3H-labeled compound to membrane fraction prepared from rat spinal cord; settings: 3H-labeled compound of Example 7, 37° C., 1 hour; relative to dorsal root ganglion
Protocol: as §1, §2, §3, §4

[4] = Specific binding of 3H-labeled compound to membrane fraction prepared from rat dorsal root ganglion; settings: 3H-labeled compound of Example 7, 37° C., 1 hour; unlabeled compound for non-specific binding; FIG. 2
Protocol: as §1, §2, §3, §4

## CN(C)C1CCN(C(=O)C[C@H](O)c2nccn2C)CC1 [Example 7, (S)-1-(4-(dimethylamino)piperidin-1-yl)-3-hydroxy-3-(1-methyl-1H-imidazol-2-yl)propan-1-one]
[1]
  specific bindings to the membrane fractions prepared from the other tissues including the brain, as % of the specific binding to the dorsal root ganglion membrane fraction: less than 1%
[2]
  specific binding to the membrane fraction prepared from the sciatic nerve, as % of the specific binding to the dorsal root ganglion membrane fraction: 42%
[3]
  specific binding to the membrane fraction prepared from the spinal cord, as % of the specific binding to the dorsal root ganglion membrane fraction: 23%
[4]
  specific binding to the membrane fraction prepared from the dorsal root ganglion: significant
